What was measured:
human COX-1 = biological target: T1, human COX-1 (Homo sapiens, UniProt P23219); assay: Inhibition of PGE2 release in COS cells stably transfected with human COX-1; type: cell-based; details: 30 μM arachidonic acid
T1 construct: expressed in transfected cells
Procedure: (§1) Inhibitory activity against human COX-1 and COX-2 was assessed in COS cells which had been stably transfected with cDNA for human COX-1 and human COX-2. 24 Hours prior to experiment, COS cells were transferred from the 175 cm^2 flasks in which they were grown, onto 24-well cell culture plates using the following procedure. The incubation medium (Dulbecco's modified eagles medium (DMEM) supplemented with heat-inactivated foetal calf serum (10% v/v), penicillin (100 IU/ml), streptomycin (100 μg/ml) and geneticin (600 μg/ml)) was removed from a flask of confluent cells (1 flask at confluency contains approximately 1×10^7 cells). 5 ml of phosphate buffered saline (PBS) was added to the flask to wash the cells. Having discarded the PBS, cells were then incubated with 5 ml trypsin for 5 minutes in an incubator […]. The flask was then removed from the incubator and 5 ml of fresh incubation medium was added. The contents of the flask was transferred to a 250 ml sterile container and the volume of incubation medium subsequently made up to 100 ml. 1 ml cell suspension was pipetted into each well of 4×24-well cell culture plates. The plates were then placed in an incubator (37° C., 95% air/5% CO2) overnight. If more than 1 flask of cells were required, the cells from the individual flasks were combined before being dispensed into the 24-well plates.
(§2) Following the overnight incubation, the incubation medium was completely removed from the 24-well cell culture plates and replaced with 250 μl fresh DMEM (37° C.). The test compounds were made up to 250× the required test concentration in DMSO and were added to the wells in a volume of 1 μl. Plates were then mixed gently by swirling and then placed in an incubator for 1 hour (37° C., 95% air/5% CO2). Following the incubation period, 10 μl of arachidonic acid (750 μM) was added to each well to give a final arachidonic acid concentration of 30 μM. Plates were then incubated for a further 10 minutes, after which the incubation medium was removed from each well of the plates and stored at −20° C., prior to determination of prostaglandin E2 (PGE2) levels using enzyme immunoassay. The inhibitory potency of the test compound was expressed as an IC50 value, which is defined as the concentration of the compound required to inhibit the PGE2 release from the cells by 50%. The selectivity ratio of inhibition of COX-1 versus COX-2 was calculated by comparing respective IC50 values.

human COX-2 = biological target: T2, human COX-2 (Homo sapiens, UniProt P35354); assay: Inhibition of PGE2 release in COS cells stably transfected with human COX-2; type: cell-based; details: 30 μM arachidonic acid
T2 construct: expressed in transfected cells
T2 sequence (P35354 18-604): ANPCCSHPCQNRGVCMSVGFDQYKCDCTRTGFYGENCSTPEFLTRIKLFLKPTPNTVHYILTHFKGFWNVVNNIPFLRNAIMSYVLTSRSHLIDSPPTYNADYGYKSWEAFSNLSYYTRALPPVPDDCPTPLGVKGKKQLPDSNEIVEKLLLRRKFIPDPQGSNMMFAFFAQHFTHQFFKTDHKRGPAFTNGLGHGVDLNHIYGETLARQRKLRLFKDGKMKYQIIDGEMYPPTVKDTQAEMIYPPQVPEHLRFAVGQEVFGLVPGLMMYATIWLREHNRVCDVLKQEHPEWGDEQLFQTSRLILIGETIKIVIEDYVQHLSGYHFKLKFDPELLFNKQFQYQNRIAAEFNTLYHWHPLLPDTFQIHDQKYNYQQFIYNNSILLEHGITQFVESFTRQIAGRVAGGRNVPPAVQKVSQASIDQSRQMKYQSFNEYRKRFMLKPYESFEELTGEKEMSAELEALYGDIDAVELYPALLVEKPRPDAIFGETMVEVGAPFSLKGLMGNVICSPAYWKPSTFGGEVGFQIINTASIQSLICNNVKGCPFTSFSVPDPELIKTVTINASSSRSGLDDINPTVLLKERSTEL
Procedure: as §1
as §2, with “Following the incubation period, 10 μl of arachidonic acid (750 μM) was added to each well to give a final arachidonic acid concentration of 30 μM.” left out, “The inhibitory potency of the test compound was expressed as an IC50 value, which is defined as the concentration of the compound required to inhibit the PGE2 release from the cells by 50%.” left out

T1 sequence (P23219 24-599): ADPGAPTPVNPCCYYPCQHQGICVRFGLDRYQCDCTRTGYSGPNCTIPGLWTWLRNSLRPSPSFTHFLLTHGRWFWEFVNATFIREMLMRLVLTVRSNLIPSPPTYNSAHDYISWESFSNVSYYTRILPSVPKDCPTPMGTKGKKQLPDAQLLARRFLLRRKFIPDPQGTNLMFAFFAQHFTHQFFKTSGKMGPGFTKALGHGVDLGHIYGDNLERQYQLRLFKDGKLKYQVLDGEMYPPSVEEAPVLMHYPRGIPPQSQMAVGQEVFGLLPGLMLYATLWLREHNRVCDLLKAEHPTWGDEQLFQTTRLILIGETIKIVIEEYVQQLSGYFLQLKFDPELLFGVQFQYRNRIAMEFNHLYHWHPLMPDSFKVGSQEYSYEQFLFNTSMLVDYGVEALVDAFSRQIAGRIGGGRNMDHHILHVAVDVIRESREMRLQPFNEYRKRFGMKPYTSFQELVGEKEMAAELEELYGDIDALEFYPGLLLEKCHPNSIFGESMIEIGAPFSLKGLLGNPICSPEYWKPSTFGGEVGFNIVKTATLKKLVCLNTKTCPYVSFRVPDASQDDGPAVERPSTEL

How did the IC50 (human COX-1) turn out when CS(=O)(=O)c1ccc(-c2cc(C(F)(F)F)nc(NC3CCOCC3)n2)cc1 [Example 1, 4-[4-(methylsulfonyl)phenyl]-N-tetrahydro-2H-pyran-4-yl-6-(trifluoromethyl)pyrimidin-2-amine] was run?
The IC50 was > 91000 nM.

And the IC50 (human COX-2)?
Its IC50 is 18 nM.

With CN(c1nc(-c2ccc(S(C)(=O)=O)cc2)cc(C(F)(F)F)n1)C1CCOCC1 [Example 2, 4-[4-(Methylsulfonyl)phenyl]-N-methyl-N-tetrahydro-2H-pyran-4-yl-6-(trifluoromethyl)pyrimidin-2-amine] as the molecule, how does the IC50 (human COX-1) read?
The IC50 was 60400 nM.

And the IC50 (human COX-2)?
Its IC50 is 16.8 nM.

Which IC50 (human COX-1) does the source give for CCN(c1nc(-c2ccc(S(C)(=O)=O)cc2)cc(C(F)(F)F)n1)C1CCOCC1 [Example 3, 4-[4-(Methylsulfonyl)phenyl]-N-ethyl-N-tetrahydro-2H-pyran-4-yl-6-(trifluoromethyl)pyrimidin-2-amine] here?
The IC50 was 69700 nM.

What about the IC50 (human COX-2) of the same molecule?
Its IC50 is 24.9 nM.

What does the source list for CCCCN(c1nc(-c2ccc(S(C)(=O)=O)cc2)cc(C(F)(F)F)n1)C1CCOCC1 [Example 4, 4-[4-(Methylsulfonyl)phenyl]-N-butyl-N-tetrahydro-2H-pyran-4-yl-6-(trifluoromethyl)pyrimidin-2-amine]?
IC50 (human COX-1): 71800 nM; IC50 (human COX-2): 143 nM

From patent publication US7084148B2, “Substituted pyrimidines as selective cyclooxygenase-2 inhibitors” (SmithKline Beecham Corporation, priority 2000, dated 2006)
